According to ChEMBL document CHEMBL3526131, “Involvement of organic anion-transporting polypeptides in the hepatic uptake of dioscin in rats and humans” (Drug Metab Dispos, 2013):

How the values were obtained:
[1] = system: Hepatocyte; assay: Cellular uptake in Wistar rat hepatocytes at 5 uM after 2 mins; type: ADME, cell-based
[2] = system: Liver; assay: Drug uptake in Wistar rat liver at 5 uM after 1 to 30 mins by LC-MS/MS analysis in presence of ibuprofen; type: ADME, tissue-based; conditions: in vivo
[3] = system: Liver; assay: Drug uptake in Wistar rat liver at 5 uM after 1 to 30 mins by LC-MS/MS analysis in presence of glycyrrhizic acid; type: ADME, tissue-based; conditions: in vivo
[4] = Cellular uptake in Wistar rat hepatocytes at 0.2 to 2.5 uM; type: ADME, cell-based, Hepatocyte
[5] = system: Hepatocyte; assay: Cellular uptake in Wistar rat hepatocytes assessed as rate of drug transport per 10^6 cells at 0.2 to 2.5 uM; type: ADME, cell-based
[6] = Drug uptake in MDCK2 cells expressing OATP1B1/MRP2 (unknown origin) at 2.5 uM after 30 to 180 mins by LC-MS/MS analysis; type: ADME, cell-based, Canis lupus familiaris; conditions: dog, mdck-ii
[7] = Intrinsic clearance in human; type: ADME, organism-based; conditions: in vivo
[8] = system: Liver; assay: Drug uptake in Wistar rat liver at 5 uM after 1 to 30 mins by LC-MS/MS analysis in presence of TEA; type: ADME, tissue-based; conditions: in vivo
[9] = Clearance in human hepatocytes assessed per 10^6 cells; type: ADME, cell-based, Hepatocyte; conditions: read-out: CLH
[10] = target: T1, Solute carrier organic anion transporter family member 1B3 (Homo sapiens, UniProt Q9NPD5); assay: Cellular uptake in HEK293 cells expressing OATP1B3 (unknown origin) assessed as inhibition of telmisartan-mediated drug transport; type: ADME, cell-based
T1 sequence (Q9NPD5 whole entry): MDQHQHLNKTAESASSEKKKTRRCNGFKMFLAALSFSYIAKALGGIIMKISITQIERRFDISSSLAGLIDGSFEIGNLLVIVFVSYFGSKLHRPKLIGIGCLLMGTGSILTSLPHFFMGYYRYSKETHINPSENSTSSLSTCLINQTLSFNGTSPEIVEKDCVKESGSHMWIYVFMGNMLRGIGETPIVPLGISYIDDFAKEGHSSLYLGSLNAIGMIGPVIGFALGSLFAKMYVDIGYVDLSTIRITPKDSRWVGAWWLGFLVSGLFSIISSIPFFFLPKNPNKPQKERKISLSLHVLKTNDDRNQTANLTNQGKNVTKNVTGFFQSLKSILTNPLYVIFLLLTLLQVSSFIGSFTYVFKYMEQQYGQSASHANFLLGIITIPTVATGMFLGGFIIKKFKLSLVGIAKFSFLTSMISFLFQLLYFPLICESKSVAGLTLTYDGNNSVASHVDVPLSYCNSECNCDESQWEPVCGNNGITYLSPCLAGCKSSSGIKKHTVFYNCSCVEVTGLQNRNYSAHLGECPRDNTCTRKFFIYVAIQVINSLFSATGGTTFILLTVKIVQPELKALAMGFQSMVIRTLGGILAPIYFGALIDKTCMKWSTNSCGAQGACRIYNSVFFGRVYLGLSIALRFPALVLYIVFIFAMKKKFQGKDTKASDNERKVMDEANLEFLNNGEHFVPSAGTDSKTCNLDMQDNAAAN

[11] = system: Liver; assay: Drug uptake in Wistar rat liver at 5 uM after 1 to 30 mins by LC-MS/MS analysis in presence of rifampicin; type: ADME, tissue-based; conditions: in vivo
[12] = target: T1, Solute carrier organic anion transporter family member 1B3; assay: Cellular uptake in HEK293 cells expressing OATP1B3 (unknown origin) assessed as inhibition of rifampicin-mediated drug transport; type: ADME, cell-based
[13] = Drug uptake in Wistar rat liver assessed as hepatic extraction ratio at 2.5 uM after 1 to 60 mins in presence of rifampicin; type: ADME, tissue-based; conditions: with rifampicin, read-out: ERH
[14] = Plasma clearance in Wistar rat; type: ADME, organism-based
[15] = target: T1, Solute carrier organic anion transporter family member 1B3; assay: Cellular uptake in HEK293 cells expressing OATP1B3 (unknown origin) assessed as inhibition of (-)-epigallocatechin gallate-mediated drug transport; type: ADME, cell-based
[16] = Drug uptake in Wistar rat liver assessed as hepatic extraction ratio at 2.5 uM after 1 to 60 mins in presence of cyclosporin A; type: ADME, tissue-based; conditions: with cyclosporin A, read-out: ERH
[17] = target: T1, Solute carrier organic anion transporter family member 1B3; assay: Cellular uptake in HEK293 cells expressing OATP1B3 (unknown origin) assessed as inhibition of cyclosporin A-mediated drug transport; type: ADME, cell-based
[18] = Drug uptake in Wistar rat liver assessed as hepatic extraction ratio at 2.5 uM after 1 to 60 mins; type: ADME, tissue-based; conditions: read-out: ERH
[19] = Fraction unbound in Wistar rat plasma at 2.5 uM by LC-MS/MS analysis; type: ADME, cell-free
[20] = system: Hepatocyte; assay: Cellular uptake in Wistar rat hepatocytes at 2.5 uM in presence of glycyrrhizic acid; type: ADME, cell-based
[21] = system: Liver; assay: Drug uptake in Wistar rat liver at 5 uM after 1 to 30 mins by LC-MS/MS analysis in presence of digoxin; type: ADME, tissue-based; conditions: in vivo
[22] = system: Hepatocyte; assay: Cellular uptake in Wistar rat hepatocytes at 2.5 uM in presence of ibuprofen; type: ADME, cell-based
[23] = system: Liver; assay: Drug uptake in Wistar rat liver assessed as liver uptake index at 0.2 mg/kg, iv; type: ADME, organism-based; set-up: dose 0.2 mg/kg, route intravenous; conditions: in vivo
[24] = Drug uptake in MDCK2 cells at 2.5 uM after 30 to 180 mins by LC-MS/MS analysis; type: ADME, cell-based, Canis lupus familiaris; conditions: dog, mdck-ii
[25] = system: HEK293; assay: Cellular uptake in HEK293 cells at 2.5 uM after 1 min; type: ADME, cell-based; conditions: human, hek293, 1 min
[26] = system: Liver; assay: Drug uptake in Wistar rat liver at 5 uM after 15 mins by LC-MS/MS analysis; type: ADME, tissue-based; conditions: in vivo, 0.25 h
[27] = system: Hepatocyte; assay: Cellular uptake in Wistar rat hepatocytes at 2.5 uM in presence of Na+; type: ADME, cell-based
[28] = system: Hepatocyte; assay: Cellular uptake in Wistar rat hepatocytes at 2.5 uM in presence of K+; type: ADME, cell-based
[29] = Ratio of drug level in blood to plasma in Wistar rat at 2.5 uM after 5 mins by LC-MS/MS analysis; type: ADME
[30] = system: Liver; assay: Drug uptake in Wistar rat liver at 5 uM after 1 to 30 mins by LC-MS/MS analysis in presence of PAH; type: ADME, tissue-based; conditions: in vivo
[31] = system: Hepatocyte; assay: Cellular uptake in Wistar rat hepatocytes at 2.5 uM in presence of digoxin; type: ADME, cell-based
[32] = target: T2, OATP1B3 (Homo sapiens, UniProt Q9NPD5); assay: (§1) Activity at OATP1B3 (unknown origin) expressed in HEK293 cells assessed as compound transport; type: ADME, cell-based; conditions: HEK293 cells expressing OATP1B3
T2 sequence (Q9NPD5 whole entry): T1 sequence (Q9NPD5 whole entry)

[33] = target: T1, Solute carrier organic anion transporter family member 1B3; assay: as §1; type: ADME, cell-based; conditions: hek293
[34] = system: Hepatocyte; assay: Cellular uptake in Wistar rat hepatocytes at 2.5 uM in presence of rifampicin; type: ADME, cell-based
[35] = system: Hepatocyte; assay: Cellular uptake in Wistar rat hepatocytes at 2.5 uM in presence of TEA; type: ADME, cell-based
[36] = system: Hepatocyte; assay: Cellular uptake in Wistar rat hepatocytes at 2.5 uM after 2 mins; type: ADME, cell-based
[37] = system: Liver; assay: Drug uptake in Wistar rat liver at 2.5 uM after 30 mins; type: ADME, tissue-based; conditions: in vivo, 0.5 h
[38] = Drug uptake in MDCK2 cells expressing OATP1B1 (unknown origin) at 2.5 uM after 30 to 180 mins by LC-MS/MS analysis; type: ADME, cell-based, Canis lupus familiaris; conditions: dog, mdck-ii
[39] = system: Liver; assay: Drug uptake in Wistar rat liver assessed as liver uptake index at 0.2 mg/kg, iv in presence of cyclosporin A; type: ADME, organism-based; set-up: dose 0.2 mg/kg, route intravenous; conditions: in vivo
[40] = Fraction unbound in Wistar rat blood; type: ADME, tissue-based
[41] = system: Hepatocyte; assay: Cellular uptake in Wistar rat hepatocytes at 2.5 uM in presence of cyclosporin A; type: ADME, cell-based
[42] = system: Liver; assay: Drug uptake in Wistar rat liver at 5 uM after 1 to 30 mins by LC-MS/MS analysis in presence of cyclosporin A; type: ADME, tissue-based; conditions: in vivo
[43] = system: Hepatocyte; assay: Cellular uptake in Wistar rat hepatocytes at 2.5 uM in presence of PAH; type: ADME, cell-based
[44] = system: Liver; assay: Drug uptake in Wistar rat liver assessed as liver uptake index at 0.2 mg/kg, iv in presence of rifampicin; type: ADME, organism-based; set-up: dose 0.2 mg/kg, route intravenous; conditions: in vivo
[45] = system: OATP1B1; assay: Efflux ratio of permeability from basolateral to apical side to apical to basolateral side in MDCK2 cells expressing OATP1B1 (unknown origin) at 1 uM after 30 to 180 mins by LC-MS/MS analysis; type: ADME, cell-based, Canis lupus familiaris, MDCK-II; conditions: dog, MDCK
[46] = system: OATP1B1/MRP2; assay: Efflux ratio of permeability from basolateral to apical side to apical to basolateral side in MDCK2 cells expressing OATP1B1/MRP2 (unknown origin) at 1 uM after 30 to 180 mins by LC-MS/MS analysis; type: ADME, cell-based, Canis lupus familiaris, MDCK-II; conditions: dog

In the case of `C[C@H]1O[C@@H](O[C@H]2[C@@H](O)C[C@H](O[C@H]3[C@@H](O)C[C@H](O[C@H]4CC[C@@]5(C)[C@H](CC[C@@H]6[C@@H]5C[C@@H](O)[C@]5(C)[C@@H](C7=CC(=O)OC7)CC[C@]65O)C4)O[C@@H]3C)O[C@@H]2C)C[C@H](O)[C@@H]1O` [DIGOXIN], the Drug uptake [1] is reported as “Active”.
For `C[C@@H]1CC[C@@]2(OC1)O[C@H]1C[C@H]3[C@@H]4CC=C5C[C@@H](O[C@@H]6O[C@H](CO)[C@@H](O[C@@H]7O[C@@H](C)[C@H](O)[C@@H](O)[C@H]7O)[C@H](O)[C@H]6O[C@@H]6O[C@@H](C)[C@H](O)[C@@H](O)[C@H]6O)CC[C@]5(C)[C@H]4CC[C@]3(C)[C@H]1[C@@H]2C` [DIOSCIN], the Drug uptake [2] was “Not Active”, the Drug uptake [3] was “Not Active” and the Km at up to 2.5 µM [4] was 3.75 µM. For the same compound, the Vmax [5] was 588 pmol/min, the Drug uptake [6] was “Active” and the CLint scaled [7] was 168 mL/min/kg. The Drug uptake [8] was “Active”, the hepatocyte CLint [9] was 35 µL/min/1e6 cells and the Ki [10] was 1030 nM. For the same compound, the Drug uptake [11] was “Not Active”, the Ki [12] was 4550 nM and the hepatic extraction ratio at 2.5 µM [13] was 0.082. For the same compound, the clearance [14] was 3.86 mL/min/kg, the Ki [15] was 8290 nM and the hepatic extraction ratio at 2.5 µM [16] was 0.074. For the same compound, the Ki [17] was 1430 nM, the hepatic extraction ratio at 2.5 µM [18] was 0.15 and the fraction unbound at 2.5 µM [19] was 0.061. The Drug uptake [20] was “Not Active”, the Drug uptake [21] was “Not Active” and the Drug uptake [22] was “Not Active”. The LUI [23] was 11.9%, the Drug uptake [24] was “Active” and the Drug uptake [25] was “Active”. The Drug uptake [26] was “Active”, the Drug uptake [27] was “Active” and the Drug uptake [28] was “Active”. For the same compound, the blood plasma ratio at 5 min, 2.5 µM [29] was 0.771, the Drug uptake [30] was “Active” and the Drug uptake [31] was “Not Active”. The Km [32] was 2.08 µM, the Vmax [33] was 730 pmol/min/mg and the Drug uptake [34] was “Not Active”. The Drug uptake [35] was “Active”, the Drug uptake [36] was “Active” and the Drug uptake [37] was “Active”. For the same compound, the Drug uptake [38] was “Active”, the LUI [39] was 6.9% and the fraction unbound [40] was 0.079. For the same compound, the Drug uptake [41] was “Not Active”, the Drug uptake [42] was “Not Active” and the Drug uptake [43] was “Active”. For the same compound, the LUI [44] was 5.5%.
Work on `C[C@]12CC[C@@H]3c4ccc(OS(=O)(=O)O)cc4CC[C@H]3[C@@H]1CCC2=O` [ESTRONE SULFURIC ACID] yielded an efflux ratio at 1 µM [45] of 2.8 and an efflux ratio at 1 µM [46] of 4.2.
